The test deals with T1, DhpA (DHPS dehydrogenase).
T1 construct: full-length gene, N-terminal His-tag (pET28a), from E. coli Rosetta 2 DE3
Briefly: initial rate of NADH formation at […] nm. Type of test: biochemical, Desulfovibrio sp. DF1. Particulars: 10 mM NAD+, 50 mM Tris-HCl, pH 9.5; racemic substrate; read-out: Kmapp.

The structures appear in SMILES notation.

For `O=S(=O)(O)CC(O)CO` (racemic) [DHPS], the Km worked out at 36 ± 4 µM.

Source of the values: PMC6278857, “Anaerobic Degradation of the Plant Sugar Sulfoquinovose Concomitant With H2S Production: Escherichia coli K-12 and Desulfovibrio sp. Strain DF1 as Co-culture Model” (Frontiers in Microbiology, 2018).
